# Results from patent US8835471B2, “Use of angiotensin II agonists” (Vicore Pharma AB, priority 2010, dated 2014).
# Key:
# [1] = tested on: BDNF; test: BDNF mRNA expression by RT-qPCR in murine primary neurons; assay type: cell-based; details: primary mouse neurons, FIG. 5a
# Description: (§1) Primary neurons were isolated from brains of E15 mouse embryos.
# (§2) Total RNA from cells was extracted using NucleoSpin RNA II extraction kit including DNAse treatment to digest genomic DNA (Macherey & Nagel, Düren, Germany).
# (§3) RNA concentration was measured spectrophotometrically at a wavelength of 260 nm. Purity was assessed by the quotient 260/280 nm.
# (§4) 250 ng of cell-derived mRNA were reverse transcribed into complementary DNA using moloney murine leukaemia virus (M-MLV) reverse transcriptase, 5× M-MLV buffer, deoxy-NTPs, random primers and RNasin (reagents from Promega, Mannheim, Germany) at 37° C. for 60 min. In order to control for genomic DNA contaminations, RNA was additionally transcribed in the absence of M-MLV reverse transcriptase (RT minus control).
# (§5) To measure gene expression, the transcribed cDNA was amplified by quantitative real-time PCR (Stratagen MX Pro, Agilent Technologies Sales & Services GmbH & Co. KG, Waldbronn, Germany) in a final volume of 25 μl with the specific primers in commercial Power SYBR Green Master Mix (Applied Biosystems, Foster City, USA). Expression values were normalized against 18SrRNA expression.
# (§6) All PCR primers were purchased from Operon Biotechnologies (Köln, Germany). […]
# [2] = tested on: TrkB; test: TrkB mRNA expression by RT-qPCR in murine primary neurons; assay type: cell-based; details: primary mouse neurons, FIG. 5b
# Description: as §1, §2, §3, §4, §5, §6
# [3] = tested on: BDNF; test: BDNF mRNA expression by RT-qPCR in murine primary astrocytes; assay type: cell-based; details: primary mouse astrocytes, FIG. 6a
# Description: as §2, §3, §4, §5, §6
# [4] = tested on: TrkB; test: TrkB mRNA expression by RT-qPCR in murine primary astrocytes; assay type: cell-based; details: primary mouse astrocytes, FIG. 6b
# Description: as §2, §3, §4, §5, §6
# [5] = tested on: Balb/C mice with spinal cord contusion lesion; test: Spinal cord contusion injury, locomotor recovery scored with the Basso Mouse Scale (BMS); assay type: in vivo
# From the text: In studies of spinal cord injury in mice, the recovery of the mice in the studies may be monitored and quantified using the Basso Mouse Scale (Basso D. M., et al., Journal of Neurotrauma, Volume 23, No. 5, 635-659 (2006), the entirety of which is hereby incorporated by reference). Using this method, each mouse in such studies may be awarded a score based on the criteria outlined in Table 1 and FIG. 1 of Basso et al., supra,
# Spinal cord injury and cortical spinal tract (CST) tracing were performed as described in (Boato et al. 2010). […] A gelfoam patch containing 1 μM the compound of Example 1(i) was then placed on top of the perforated dura (only in the second experiment, see Example 3), the muscles were sutured and the back skin closed with wound clips. Recovery of function after SCI was determined by scoring the locomotor hindlimb performance in the open field with the BMS, a 0-9 rating system based on the BBB scale and specifically designed for the mouse (Basso D. M., et al., Journal of Neurotrauma, Volume 23, No. 5, 635-659 (2006)). Under blind conditions, investigator evaluated the mice over a 4-min time period daily. Before surgery, animals were acclimated to the open field and to handling to prevent fear and/or stress behaviours that could bias the locomotor assessment.
# [6] = tested on: CST nerve fibres of mice with spinal cord injury; test: Cortical spinal tract tracing (BDA-labelled nerve fibres) after spinal cord injury; assay type: in vivo, mouse; details: FIG. 4
# Description: To anterogradely label the CST, 2 μl of biotinylated dextran amine (10% BDA) were then injected into the motor cortex. BDA-positive CST nerve fibres were visualized by 3,3′-diaminobenzidine staining and counted cranial and caudal to the lesion in serial sections and normalized to the number of labelled fibres in the dorsoventral diameter of the CST in cross sections at T4.
# The bars in FIG. 2 represent the percentage of nerve fibres in the area between the end of the CST and the lesion centre (TE-LC) and in the area 0.1, 0.2 or 0.5 mm distal to the lesion centre (0.1, 0.2 or 0.5 mm from LC).
# The potential for administration of the compound of Example 1(i) to mice to lead to regeneration of axonal fibres and bridging of the site of injury by reinnervation, following spinal cord injury, was examined. This involved tracking motor neurons by injection of BDA-labelled dextran into the motor cortex.
# [7] = tested on: TrkB; test: Immunohistochemical stainings of injured spinal cords for TrkB; assay type: in vivo, mouse; details: 4 week treatment; area of injury and peri-lesional tissue; versus vehicle; FIG. 7
# From the text: Animal tissues were fixated by transcardial perfusion with normal saline followed by ice-cold 4% paraformaldehyde in 0.1 M phosphate-buffered saline. After perfusion, spinal cords were dissected and post-fixed overnight in the same fixative. The next day, the tissues were embedded in Jung-Tissue Freezing Medium (Leica Microsystems Nussloh, Germany) and cut longitudinally along the horizontal plane (40 μm thickness) into six series using a freezing microtome.
# For immunostaining, samples were preincubated with 10% normal goat serum dissolved in PBS containing 0.5% Triton X-100 for 30 minutes at room temperature (RT). Incubation with primary antibody (Santa Cruz) was carried out overnight at 4° C. Following repeated washing steps with PBS, secondary antibodies (Jackson ImmunoResearch Laboratories) were applied for 2 hours at RT. After removal of unbound antibodies, sections were mounted.
# For measurement of signal intensity six sections per animal containing the lesion center were analyzed. Micrographs were made in 15 rectangular boxes along the spinal cord covering the lesion and surrounding area. Using ImageJ software (NIH) pictures were converted into the 8-Bit greyscale and the signal intensity for each box was evaluated.
# [8] = tested on: viable neurons at the site of spinal cord injury; test: Histochemical stainings of injured spinal cords for Nissl (viable neurons); assay type: in vivo, mouse; details: versus vehicle-treated animals; FIG. 8
# Description: Animals were fixated as described above.
# For staining of viable neurons the NeuroTrace® 500/525 green fluorescent Nissl stain (Invitrogen) was used. Briefly, after rehydration tissue slices were permeabilized in PBS containing 0.1% Triton X-100 for 10 minutes at room temperature. After washing NeuroTrace solution (100 fold diluted in PBS) was applied to the sections and incubated for 20 minutes at room temperature. After washing, samples were mounted for microscopy.
# For measurement of signal intensity six sections per animal containing the lesion centre were analyzed. Micrographs were made in 15 rectangular boxes along the spinal cord covering the lesion and surrounding area. Using ImageJ software (NIH) pictures were converted into the 8-Bit grayscale and the signal intensity for each box was evaluated.
Compound,effect of AT2R-antagonist on BDNF mRNA increase induced by the compound of Example 1(i) ([1]; combination with Example 1(i)),effect of AT2R-antagonist on TrkB mRNA increase induced by the compound of Example 1(i) ([2]; combination with Example 1(i)),effect of co-treatment with AT2R-antagonist on BDNF expression induced by the compound of Example 1(i) ([3]; co-treatment with Example 1(i)),effect of co-treatment with AT2R-antagonist on TrkB expression induced by the compound of Example 1(i) ([4]; co-treatment with Example 1(i)),"Basso Mouse Scale score better than vehicle treated mice ([5]; Balb/C mice, treated once daily, versus vehicle, FIG. 1)","neurological deficits (Basso Mouse Score) compared to controls ([5]; Balb/C mice, treated once daily, day 2 and 3 and from day 9 until the end of the study, FIG. 1)","neurological outcome (BMS), difference between routes of administration ([5]; systemically (i.p.) versus gel placed at the site of injury, FIG. 2)","BMS subscore paw position of hindlimbs, recovery ([5]; versus vehicle treated mice, where almost completely absent, FIG. 3)","increase in BMS subscore paw position, statistical significance ([5]; versus vehicle, FIG. 3)",number of BDA-labelled axons (CST nerve fibres) compared to controls [6],production of mRNA encoding BDNF [1],production of mRNA encoding TrkB [2],expression of BDNF ([3]; 10^−6M),expression of TrkB ([4]; 10^−6M),TrkB immunoreactivity (signal intensity) in spinal cord [7],Nissl positive cells (viable neurons) at the site of spinal cord injury [8]
"Cc1cc(Cn2cnc3c2C[C@@H](C(=O)O)N(C(=O)C(c2ccccc2)c2ccccc2)C3)ccc1N(C)C [PD123319, reference compound]",completely blocked,completely blocked,abrogated,abrogated,–,–,–,–,–,–,–,–,–,–,–,–
"CCCCOC(=O)NS(=O)(=O)c1sc(CC(C)C)cc1-c1ccc(Cn2ccnc2)cc1 [Example 1(i), N-Butyloxycarbonyl-3-(4-imidazol-1-ylmethylphenyl)-5-iso-butylthiophene-2-sulfonamide]",–,–,–,–,approximately 1.5 points,significantly reduced neurological deficits,no statistically significant difference,continuous recovery,statistically significant from day 7 until the end of the observational period,significantly increased,significantly increased,significantly increased,induced expression,induced expression,strongly increased,significant increase
